{"source": "patent US20170247690A1", "about": "“ONCOVIRAL TREATMENT WITH NUCLEASE AND CHEMOTHERAPEUTIC” (priority 2016, published 2017)", "origin": "cited, not measured here", "key": {"20S proteasomes": {"target": "20S proteasomes (Homo sapiens, UniProt Q99436)", "details": "purified 20S proteasomes"}, "proteasome T-L activity": {"test_system": "proteasome T-L activity", "details": "animal model studies"}}, "data": [{"smiles": "C[C@@]12OC(=O)[C@]1([C@@H](O)[C@@H]1C=CCCC1)NC(=O)[C@@H]2CCCl", "note": "[salinosporamide A, Salinosporamide A]", "values": [{"measurement": "EC50 for trypsin-like (T-L) activity, comparison", "setting": "20S proteasomes", "value": "lower EC50 for trypsin-like (T-L) activity than does bortezomib"}, {"measurement": "T-L proteasome activity in vivo", "setting": "proteasome T-L activity", "value": "marked inhibition of T-L activity"}]}, {"smiles": "CC(C)C[C@H](NC(=O)[C@H](Cc1ccccc1)NC(=O)c1cnccn1)B(O)O", "note": "[bortezomib]", "values": [{"measurement": "T-L proteasome activity in vivo", "setting": "proteasome T-L activity", "value": "enhances T-L proteasome activity"}]}]}
